From patent US20250074901A1, “NOVEL HETEROARYL COMPOUNDS” (ICAGEN, LLC, priority 2021, published 2025)

Target: T1, Kv7.2 (Homo sapiens, UniProt O43526)
T1 construct: expressed in transfected cells
Test: Activation of Kv7.2 (in vitro assay, concentration response curve)
Assay type: cell-based
Conditions: for Emax: Kv7.2 activation max %; for EC50: activation of Kv7.2
Procedure, shortened: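 EC50 is the half-maximal effective concentration, relative to the Emax observed for each compound in this in vitro assay. It was derived from concentration–response curves of the agonistic effect measured over a series of concentrations.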

Row | SMILES | Emax [%] | EC50 [nM]
1 | O=C(NCc1ccnc(OC(F)F)c1)NC1(C23CC(F)(C2)C3)CC1 [Example 177, 1-[[2-(difluoromethoxy)pyridin-4-yl]methyl]-3-[1-(3-fluoro-1-bicyclo[1.1.1]pentanyl)cyclopropyl]urea] | 43 | 1400
2 | O=C(NCc1ccnc(-n2cccn2)c1)N[C@H]1C[C@@H]2CC[C@H]1C2 [Example 15, 1-[(1S,2S,4R)-2-bicyclo[2.2.1]heptanyl]-3-[(2-pyrazol-1-ylpyridin-4-yl)methyl]urea] | 78 | 380
3 | O=C(NCc1ccnc(OCC(F)(F)F)c1)NCC(O)C12CC(C1)C2 (stereo not shown) [Example 292, 1-[2-(1-bicyclo[1.1.1]pentanyl)-2-hydroxyethyl]-3-[[2-(2,2,2-trifluoroethoxy)pyridin-4-yl]methyl]urea] | 62 | 620
4 | O=C(NCc1ccnc(OC(F)F)c1)NC12CC(C(F)(F)F)(C1)C2 [Example 178, 1-[[2-(difluoromethoxy)pyridin-4-yl]methyl]-3-[3-(trifluoromethyl)-1-bicyclo[1.1.1]pentanyl]urea] | 62 | 1860
5 | O=C(NCc1ccnc(C(F)(F)F)c1)N[C@H]1C[C@@H]2CC[C@H]1C2 (racemic) [Example 36, 1-[rac-(1R,2R,4S)-2-bicyclo[2.2.1]heptanyl]-3-[[2-(trifluoromethyl)pyridin-4-yl]methyl]urea] | 64 | 540
6 | O=C(NCc1ccnc(OCC(F)(F)F)c1)N[C@H]1C[C@H](F)C1 [Example 162, 1-((1r,3r)-3-fluorocyclobutyl)-3-[[2-(2,2,2-trifluoroethoxy)pyridin-4-yl]methyl]urea] | 50 | 190
7 | O=C(NCc1ccnc(OCF)c1)NC12CCC(F)(CC1)CC2 [Example 208, 1-(4-fluoro-1-bicyclo[2.2.2]octanyl)-3-[[2-(fluoromethoxy)pyridin-4-yl]methyl]urea] | 58 | 470
8 | O=C(Nc1cccc(Cl)c1)NC(CO)c1ccnc(OC(F)F)c1 (stereo not shown) [Example 97, 1-(3-chlorophenyl)-3-[1-[2-(difluoromethoxy)pyridin-4-yl]-2-hydroxyethyl]urea] | 55 | 80
9 | O=C(NCc1ccnc(C(F)F)c1)N[C@H]1C[C@@H]2CC[C@H]1C2 (racemic) [Example 35, 1-[[2-(difluoromethyl)pyridin-4-yl]methyl]-3-[rac-(1R,2R,4S)-2-bicyclo[2.2.1]heptanyl]urea] | 67 | 1140
10 | O=C(NCc1ccnc(OC(F)F)c1)NC1CCOC(C(F)(F)F)C1 (stereo not shown) [Example 226, 1-[[2-(difluoromethoxy)pyridin-4-yl]methyl]-3-[2-(trifluoromethyl)oxan-4-yl]urea] | 40 | 2450
11 | O=C(NCc1ccnc(OCC(F)F)c1)NC12CC(F)(C1)C2 [Example 217, 1-[[2-(2,2-difluoroethoxy)pyridin-4-yl]methyl]-3-(3-fluoro-1-bicyclo[1.1.1]pentanyl)urea] | 43 | 310
12 | CC(F)COc1cc(CNC(=O)N[C@H]2C[C@H](C(F)(F)F)C2)ccn1 (stereo partly shown) [Example 183, 1-[[2-(2-fluoropropoxy)pyridin-4-yl]methyl]-3-[(1r,3r)-3-(trifluoromethyl)cyclobutyl]urea] | 58 | 260
13 | O=C(NCc1ccnc(OCC(F)(F)F)c1)Nc1cc(F)ccc1F [Example 245, 1-(2,5-difluorophenyl)-3-[[2-(2,2,2-trifluoroethoxy)pyridin-4-yl]methyl]urea] | 54 | 50
14 | CC(C)(C)CC1(NC(=O)NCc2ccnc(OC(F)F)c2)CC1 [Example 44, 1-[[2-(difluoromethoxy)pyridin-4-yl]methyl]-3-[1-(2,2-dimethylpropyl)cyclopropyl]urea] | 75 | 480
15 | O=C(NCc1ccnc(OCC(F)(F)F)c1)NC1(C2CC(F)(F)C2)CC1 [Example 254, 1-[1-(3,3-difluorocyclobutyl)cyclopropyl]-3-[[2-(2,2,2-trifluoroethoxy)pyridin-4-yl]methyl]urea] | 40 | 1010
16 | O=C(NCc1ccnc(CC(F)(F)F)c1)Nc1ccc(F)c(F)c1 [Example 274, 1-(3,4-difluorophenyl)-3-[[2-(2,2,2-trifluoroethyl)pyridin-4-yl]methyl]urea] | 48 | 360
17 | O=C(Nc1cccc(CF)c1)NC(CO)c1ccnc(OCC(F)(F)F)c1 (stereo not shown) [Example 232, 1-[3-(fluoromethyl)phenyl]-3-[2-hydroxy-1-[2-(2,2,2-trifluoroethoxy)pyridin-4-yl]ethyl]urea] | 47 | 250
18 | O=C(NCc1ccnc(OCC(F)(F)F)c1)NCC12CC(F)(C1)C2 [Example 75, 1-[(3-fluoro-1-bicyclo[1.1.1]pentanyl)methyl]-3-[[2-(2,2,2-trifluoroethoxy)pyridin-4-yl]methyl]urea] | 40 | 600
19 | O=C(NCc1ccnc(OC(F)F)c1)N[C@H]1C[C@H]2CCC[C@H]2C1 [Example 105] | 78 | 40

Row | SMILES | Emax [%] | EC50 [nM]
20 | O=C(NCc1ccnc(OC(F)F)c1)Nc1nccc(Cl)n1 [Example 96, 1-(4-chloropyrimidin-2-yl)-3-[[2-(difluoromethoxy)pyridin-4-yl]methyl]urea] | 85 | 7220
21 | O=C(NCc1ccnc(OC(F)F)c1)N[C@@H]1CCCC(F)(F)C1 [Example 149, 1-[(1R)-3,3-difluorocyclohexyl]-3-[[2-(difluoromethoxy)pyridin-4-yl]methyl]urea] | 43 | 240
22 | O=C(NCc1ccnc(OC(F)F)c1)N[C@@H]1C[C@@H]2[C@H](C1)C2(F)F [Example 169, 1-[[2-(difluoromethoxy)pyridin-4-yl]methyl]-3-[(1R,3s,5S)-6,6-difluoro-3-bicyclo[3.1.0]hexanyl]urea] | 69 | 340
23 | CC(F)(F)COc1cc(CNC(=O)NC23CCC(F)(CC2)CC3)ccn1 [Example 122, 1-[[2-(2,2-difluoropropoxy)pyridin-4-yl]methyl]-3-(4-fluoro-1-bicyclo[2.2.2]octanyl)urea] | 61 | 190
24 | CC1CCCC(C)C1NC(=O)NCc1ccnc(OC(F)F)c1 (stereo not shown) [Example 25, 1-[[2-(difluoromethoxy)pyridin-4-yl]methyl]-3-(2,6-dimethylcyclohexyl)urea] | 75 | 30
25 | C[C@@H](F)COc1cc(CNC(=O)NC23CCC(F)(CC2)CC3)ccn1 [Example 151, 1-(4-fluoro-1-bicyclo[2.2.2]octanyl)-3-[[2-[(2R)-2-fluoropropoxy]pyridin-4-yl]methyl]urea] | 42 | 650
26 | O=C(NCc1ccnc(OCC(F)(F)F)n1)Nc1cccc(Cl)c1 [Example 203, 1-(3-chlorophenyl)-3-[[2-(2,2,2-trifluoroethoxy)pyrimidin-4-yl]methyl]urea] | 42 | 210
27 | O=C(NCc1ccnc(OC(F)F)c1)Nc1cccc(Cl)c1 [Example 22, 1-(3-chlorophenyl)-3-[[2-(difluoromethoxy)pyridin-4-yl]methyl]urea] | 41 | 30
28 | CC1(C)CCC(NC(=O)NCc2ccnc(-n3ccnc3)c2)CC1 [Example 37, 1-(4,4-dimethylcyclohexyl)-3-[(2-imidazol-1-ylpyridin-4-yl)methyl]urea] | 59 | 1310
29 | CC(F)(F)c1cc(CNC(=O)Nc2cccc(Cl)c2)ccn1 [Example 231, 1-(3-chlorophenyl)-3-[[2-(1,1-difluoroethyl)pyridin-4-yl]methyl]urea] | 51 | 800
30 | C[C@]1(NC(=O)NCc2ccnc(OC(F)F)c2)C[C@@H](C(F)(F)F)C1 [Example 194, 1-[[2-(difluoromethoxy)pyridin-4-yl]methyl]-3-[(1r,3r)-1-methyl-3-(trifluoromethyl)cyclobutyl]urea] | 40 | 1540
31 | O=C(NCc1cnnc(OCC(F)(F)F)c1)N[C@H]1C[C@H](C(F)(F)F)C1 [Example 215] | 40 | 6830
32 | O=C(NCc1ccnc(OCC(F)CF)c1)N[C@H]1C[C@H](C(F)(F)F)C1 (stereo partly shown) [Example 214, 1-[[2-(2,3-difluoropropoxy)pyridin-4-yl]methyl]-3-[(1r,3r)-3-(trifluoromethyl)cyclobutyl]urea] | 54 | 500
33 | CC1CC(C)(C)CCC1NC(=O)NCc1ccnc(C#N)c1 (stereo not shown) [Example 5, 1-[(2-cyanopyridin-4-yl)methyl]-3-(2,4,4-trimethylcyclohexyl)urea] | 60 | 3690
34 | O=C(NCc1ccnc(OC(F)F)c1)N[C@@H]1C[C@H]2CC[C@@H]1O2 (racemic) [Example 102, 1-[[2-(difluoromethoxy)pyridin-4-yl]methyl]-3-[rac-(1R,2S,4S)-7-oxabicyclo[2.2.1]heptan-2-yl]urea] | 71 | 5860
35 | O=C(NCc1ccnc(OC(F)F)c1)N[C@H]1C[C@](O)(C(F)(F)F)C1 [Example 100, 1-[[2-(difluoromethoxy)pyridin-4-yl]methyl]-3-[(1s,3s)-3-hydroxy-3-(trifluoromethyl)cyclobutyl]urea] | 40 | 3660
36 | COc1cc(CNC(=O)N[C@@H]2C[C@H]3CC[C@@H]2C3)ccn1 (racemic) [Example 14, 1-[(2-methoxypyridin-4-yl)methyl]-3-[rac-(1R,2R,4S)-2-bicyclo[2.2.1]heptanyl]urea] | 86 | 1840
37 | O=C(NCc1ccnc(OC(F)F)c1)N[C@@H]1CC[C@@H]1C(F)(F)F (racemic) [Example 255, 1-[[2-(difluoromethoxy)pyridin-4-yl]methyl]-3-[rac-(1R,2S)-2-(trifluoromethyl)cyclobutyl]urea] | 78 | 2570
38 | Cc1cccc(NC(=O)NCc2ccnc(OC(F)F)c2)n1 [Example 218, 1-[[2-(difluoromethoxy)pyridin-4-yl]methyl]-3-(6-methylpyridin-2-yl)urea] | 54 | 1490
